Assay results from the supplement of paper PMC11208160.

Test: recombinant UMI read abundance after kanamycin selection (control-corrected) (log10(CPM+1)); higher = more efficient recombination; extreme values may be limits of the assay; sequences stand for … in AGTGCAGAGAAAATCGGCCAGTTTTCTCTGCCTGCAGTCCGCATGCCGTGGGACCCCTTGGGTTCTAACCTGTTGCCTAGATTTATGCAGCGGACTGCCTTTCTCCCAAAGTGATAAACCGG…AGGTTGGTTTCACT; site = the 11-nt donor
Summary of the method: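 The measure is log10(CPM+1) for recombinant UMIs. These were PCR-amplified across the donor–target junction and sequenced after Escherichia coli carrying a donor and donor-binding-loop pair library and a target plasmid with T7-inducible IS621 bridge recombinase was plated on IPTG (0.07 mM) plus kanamycin or unselected. CPM were averaged over two replicates and scaled by control-derived factors.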
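Further: IS621 bridge recombinase in Escherichia coli cells against a fixed T5 target plasmid.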

In order of falling “recombinant UMI read abundance (log10)” value:
1. ATGATCTCATGGACCGGTTTTCCCGGTAATCCGTATTTGCG (site ATGATCTCTCG)  3.11
2. ATGAGGACATGGACCGGTTTTCCCGGTAATCCGTATTTGCT (site ATGAGGACTAG)  2.89
3. ATCGCGGCATGGACCGGTTTTCCCGGTAATCCGTATTTGTC (site ATCGCGGCTGA)  2.69
4. ATCTATGCATGGACCGGTTTTCCCGGTAATCCGTATTTGAC (site ATCTATGCTGT)  2.57
5. ATGGAGGCATGGACCGGTTTTCCCGGTAATCCGTATTTGGC (site ATGGAGGCTGC)  2.53
6. ATCTATACATGGACCGGTTTTCCCGGTAATCCGTATTTGAC (site ATCTATACTGT)  2.44
7. ATGGAGACATGGACCGGTTTTCCCGGTAATCCGTATTTGTA (site ATGGAGACTTA)  2.41
8. ATGATATCATGGACCGGTTTTCCCGGTAATCCGTATTTGCA (site ATGATATCTTG)  2.39
9. ATGGAAACATGGACCGGTTTTCCCGGTAATCCGTATTTGCG (site ATGGAAACTCG)  2.39
10. ATCTCTACATGGACCGGTTTTCCCGGTAATCCGTATTTGAC (site ATCTCTACTGT)  2.29
11. ATCTATACATGGACCGGTTTTCCCGGTAATCCGTATTTGAC (site CTCTATACTGT)  2.17
12. ATGACATCATGGACCGGTTTTCCCGGTAATCCGTATTTGAT (site ATGACATCTAT)  2.14
13. ATCTATGCATGGACCGGTTTTCCCGGTAATCCGTATTTGAC (site ATCTATACTGT)  2.11
14. ATGGAGGCATGGACCGGTTTTCCCGGTAATCCGTATTTGGC (site ATGAAGGCTGC)  2.07
15. ATGCCATCATGGACCGGTTTTCCCGGTAATCCGTATTTGCA (site ATGCCATCTTG)  1.98
16. ATGAACACATGGACCGGTTTTCCCGGTAATCCGTATTTGTG (site ATGAACACTCA)  1.96
17. ATGGAGACATGGACCGGTTTTCCCGGTAATCCGTATTTGTG (site ATGGAGACTCA)  1.96
18. ATGCAGACATGGACCGGTTTTCCCGGTAATCCGTATTTGTT (site ATGCAGACTAA)  1.92
19. ATCTATACATGGACCGGTTTTCCCGGTAATCCGTATTTGAC (site ATCCATACTGT)  1.7
20. ATGACTGCATGGACCGGTTTTCCCGGTAATCCGTATTTGCG (site ATGACTGCTCG)  1.7
21. ATGCAAACATGGACCGGTTTTCCCGGTAATCCGTATTTGGA (site ATGCAAACTTC)  1.69
22. ATCTATACATGGACCGGTTTTCCCGGTAATCCGTATTTGAC (site AGCTATACTGT)  1.66
23. ATGGAGGCATGGACCGGTTTTCCCGGTAATCCGTATTTGGC (site ATGTAGGCTGC)  1.48
24. ATGACGGCATGGACCGGTTTTCCCGGTAATCCGTATTTGAG (site ATGACGGCTCT)  1.39
25. ATCTATACATGGACCGGTTTTCCCGGTAATCCGTATTTGAA (site ATCTATACTTT)  1.29
26. ATCTGGACATGGACCGGTTTTCCCGGTAATCCGTATTTGCC (site ATCTGGACTGG)  1.25
27. ATCTATACATGGACCGGTTTTCCCGGTAATCCGTATTTGAC (site TTCTATACTGT)  1.19
28. ATGGAGGCATGGACCGGTTTTCCCGGTAATCCGTATTTGTG (site ATGGAGGCTCA)  1.11
29. ATGCGTTCATGGACCGGTTTTCCCGGTAATCCGTATTTGGG (site ATGCGTTCTCC)  1.05
30. ATCTATACATGGACCGGTTTTCCCGGTAATCCGTATTTGAC (site ATGTATACTGT)  1.03
31. ATGGAGGCATGGACCGGTTTTCCCGGTAATCCGTATTTGGC (site ATGCAGGCTGC)  1.03
32. ATCTATACATGGACCGGTTTTCCCGGTAATCCGTATTTGAC (site ACCTATACTGT)  0.944
33. ATCTTTACATGGACCGGTTTTCCCGGTAATCCGTATTTGAC (site ATCTATACTGT)  0.832
34. ATGGAGGCATGGACCGGTTTTCCCGGTAATCCGTATTTGTG (site CTGGAGGCTCA)  0.764
35. ATCTTTACATGGACCGGTTTTCCCGGTAATCCGTATTTGAC (site ATCTTTACTGT)  0.661
36. ATCTATACATGGACCGGTTTTCCCGGTAATCCGTATTTGAC (site ATCTACACTGT)  0.552
37. ATCTTCCCATGGACCGGTTTTCCCGGTAATCCGTATTTGCA (site ATCTTCCCTTG)  0.523
38. ATGACTCCATGGACCGGTTTTCCCGGTAATCCGTATTTGGA (site ATGACTCCTTC)  0.437
39. ATCTATACATGGACCGGTTTTCCCGGTAATCCGTATTTGAC (site GTCTATACTGT)  0.424
40. ATCTATACATGGACCGGTTTTCCCGGTAATCCGTATTTGAC (site ATATATACTGT)  0.408
41. ATCTATACATGGACCGGTTTTCCCGGTAATCCGTATTTGAC (site ATCTATTCTGT)  0.327
42. ATCTCAGCATGGACCGGTTTTCCCGGTAATCCGTATTTGGG (site ATCTCAGCTCC)  0.323
43. ATCTCTACATGGACCGGTTTTCCCGGTAATCCGTATTTGAC (site ATCTATACTGT)  0.264
44. ATCTTTACATGGACCGGTTTTCCCGGTAATCCGTATTTGAC (site ATCTGTACTGT)  0.247
45. ATCTATACATGGACCGGTTTTCCCGGTAATCCGTATTTGAC (site ATCTATACTGA)  0.0717
46. ATCTATACATGGACCGGTTTTCCCGGTAATCCGTATTTGAA (site ATCTATACTAT)  0.0589
47. ATCGAGACATGGACCGGTTTTCCCGGTAATCCGTATTTGGT (site ATTGAGACTAC)  0.017
48. ATCTCAGCATGGACCGGTTTTCCCGGTAATCCGTATTTGGG (site AACTCAGCTCC)  0.0145
49. ATCTATACATGGACCGGTTTTCCCGGTAATCCGTATTTGAC (site ATCTATACTTT)  0.0131
50. ATCTCAGCATGGACCGGTTTTCCCGGTAATCCGTATTTGGG (site AGCTCAGCTCC)  0.0129
51. ATCTATACATGGACCGGTTTTCCCGGTAATCCGTATTTGAA (site ATCTATACTCT)  0.0128
52. ATCTATACATGGACCGGTTTTCCCGGTAATCCGTATTTGAC (site ATCTATACTCT)  0.011
53. ATCTCAGCATGGACCGGTTTTCCCGGTAATCCGTATTTGGG (site ACCTCAGCTCC)  0.01
54. ATCTATACATGGACCGGTTTTCCCGGTAATCCGTATTTGAC (site ATCTATACTAT)  0.00827
55. ATCTATACATGGACCGGTTTTCCCGGTAATCCGTATTTGAC (site AACTATACTGT)  0.0062
56. ATGAGCGCATGGACCGGTTTTCCCGGTAATCCGTATTTGGG (site ATGAGCGCTCC)  0.00562
57. ATCTCTACATGGACCGGTTTTCCCGGTAATCCGTATTTGAC (site ATCTGTACTGT)  0.00346
58. ATCTATACATGGACCGGTTTTCCCGGTAATCCGTATTTGAA (site ATCTATACTGT)  0
59. ATCTATACATGGACCGGTTTTCCCGGTAATCCGTATTTGAC (site ATCAATACTGT)  0
60. ATCTATACATGGACCGGTTTTCCCGGTAATCCGTATTTGAC (site ATCGATACTGT)  0
61. ATCTATACATGGACCGGTTTTCCCGGTAATCCGTATTTGAC (site ATCTAAACTGT)  0
62. ATCTATACATGGACCGGTTTTCCCGGTAATCCGTATTTGAC (site ATCTAGACTGT)  0
63. ATCTATACATGGACCGGTTTTCCCGGTAATCCGTATTTGAC (site ATCTATACTGC)  0
64. ATCTATACATGGACCGGTTTTCCCGGTAATCCGTATTTGAC (site ATCTATACTGG)  0
65. ATCTATACATGGACCGGTTTTCCCGGTAATCCGTATTTGAC (site ATCTATCCTGT)  0
66. ATCTATACATGGACCGGTTTTCCCGGTAATCCGTATTTGAC (site ATCTATGCTGT)  0
67. ATCTATACATGGACCGGTTTTCCCGGTAATCCGTATTTGAC (site ATCTCTACTGT)  0
68. ATCTATACATGGACCGGTTTTCCCGGTAATCCGTATTTGAC (site ATCTGTACTGT)  0
69. ATCTATACATGGACCGGTTTTCCCGGTAATCCGTATTTGAC (site ATCTTTACTGT)  0
70. ATCTATACATGGACCGGTTTTCCCGGTAATCCGTATTTGAC (site ATTTATACTGT)  0
71. ATCTATGCATGGACCGGTTTTCCCGGTAATCCGTATTTGAC (site ATCTATCCTGT)  0
72. ATCTATGCATGGACCGGTTTTCCCGGTAATCCGTATTTGAC (site ATCTATTCTGT)  0
73. ATCTCTACATGGACCGGTTTTCCCGGTAATCCGTATTTGAC (site ATCTTTACTGT)  0
74. ATCTGTGCATGGACCGGTTTTCCCGGTAATCCGTATTTGGC (site ATCTGTGCTGC)  0
75. ATCTTTACATGGACCGGTTTTCCCGGTAATCCGTATTTGAC (site ATCTCTACTGT)  0
